Laboratory results published in PubChem BioAssay AID977624 (Broad Institute, 2014).
Results filed as inconclusive are left out. Calls of active or inactive are those of the source.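 How the source made its calls: active means compound lowering the normal-ribosome reporter at least twice as much as the humanized-ribosome reporter, growth loss under a set limit; inconclusive means no clear call, values can overlap the other calls; inactive means the rest.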

How the values were obtained:
Test in all cases: growth inhibition of wild-type GFP E. coli, dose response, h34 mutant RFP, cherry-pick (AID 977624);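 further: wild-type GFP strain co-cultured with humanized h34 ribosome RFP strain in same well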
[1] = system: E. coli h34 humanized ribosome mutant RFP strain growth, fluorescence, 24 h
[2] = system: E. coli wild-type GFP strain growth, fluorescence, 24 h
[3] = system: E. coli mixed culture (wild-type GFP + h34 RFP) total growth, OD600, 24 h; settings: E. coli mixed culture (wild-type GFP + h34 RFP), 24 h
[4] = measured here: total OD600 growth

SMILES	AC50 [1]	AC50 [2]	AC50 [3, 4]	further results
COc1cccc(NC(=O)CSc2nc3c(sc4ccccc43)c(=O)n2CCN(C)C)c1	> 100 µM	–	–	–
CS(=O)(=O)Nc1ccccc1C(=O)NCCSc1ccccc1	51.2 µM	–	–	–
Cc1cccc(N2CCN(Cc3nc(-c4ccc(F)cc4F)oc3C)CC2)n1	3.83 µM	–	–	–
O=C(Nc1cccc(Cl)c1)c1ccc(S(=O)(=O)NCC2CCCO2)cc1 (stereo not given)	1.4 µM	> 100 µM (inactive)	–	–
O=S(=O)(NCC1CCCO1)c1ccc(-c2ccc(Cl)cc2)cc1 (stereo not given)	31.8 µM	–	–	–
CC(C)(C)c1ccc(-c2noc(CCC(=O)NCc3ccco3)n2)cc1	2.76 µM	–	–	–
O=C(Nc1ccccc1Cl)c1ccc2c(c1)N(Cc1ccc(F)cc1)C(=O)CS2=O (stereo not given)	50 µM	> 100 µM (inactive)	–	–
Cc1ccc(NS(=O)(=O)c2cc(C(=O)N3CCc4ccccc4C3)ccc2Cl)cc1	32.6 µM	> 100 µM (inactive)	–	–
CCOc1ccccc1NC(=O)c1ccc2ccccc2c1	–	–	–	AC50 ([3]; measured here: OD600, test 1): 38.3 µM; AC50 ([1]; E. coli wild-type GFP strain growth, fluorescence, 24 h, measured here: RFP h34 mutant, test 1): > 100 µM; AC50 ([2]; measured here: GFP wild-type, test 1): > 100 µM
CC(NCc1ccc(S(N)(=O)=O)cc1)C(=O)Nc1cc([N+](=O)[O-])ccc1Cl (stereo not given)	> 100 µM	> 100 µM (inactive)	–	–
O=C(O)c1cc(-c2ccc(Cl)s2)nc2ccccc12	–	> 100 µM (inactive)	> 100 µM	–
COc1cc(OC)nc(Oc2ccccc2C(=O)Oc2ccc(C)cc2)n1	45.6 µM	> 100 µM (inactive)	–	–
COCC#Cc1ccc2c(c1)O[C@H](CN(C)C(=O)c1ccccc1)[C@@H](C)CN([C@H](C)CO)S2(=O)=O	> 100 µM	–	–	–
COc1ccc(CCCc2nc3ccccc3[nH]2)cc1	–	> 100 µM (inactive)	> 100 µM	–
O=C(Nc1ccccc1N1CCOCC1)C1CCCCN1S(=O)(=O)c1ccccc1 (stereo not given)	> 100 µM	–	–	–
COc1ccc(-c2nc(NC(C)=O)sc2-c2ccccc2)cc1	–	> 100 µM (inactive)	> 100 µM	–
CN(CCOc1ccccc1)C(=O)c1ccc(OC2CCN(C(=O)C3CC3)CC2)cc1	–	> 100 µM (inactive)	> 100 µM	–
COC(=O)c1cc(S(=O)(=O)NCc2ccc3c(c2)OCO3)cn1C	52.4 µM	–	–	–
C=CCN(c1ccccc1)S(=O)(=O)c1cccc2cccnc12	4.71 µM	–	–	–
CC(=O)c1c(N2CCOCC2)nc2ccc(Cl)cc2c1-c1ccccc1	> 100 µM	–	–	–
Cc1ccc(Cl)cc1N1CCN(C(=O)c2ccc3nc[nH]c3c2)CC1	–	> 100 µM (inactive)	> 100 µM	–
Cc1ccccc1NS(=O)(=O)c1cc(C(=O)NCCC2=CCCCC2)ccc1C	> 100 µM	–	–	–
CCn1c(NC(=O)c2nn(C)cc2Br)nc2ccccc21	45.6 µM	> 100 µM (inactive)	50.3 µM	–
COc1cccc(N2CCN(c3ccc(S(=O)(=O)N4CCN(C)CC4)cc3[N+](=O)[O-])CC2)c1	–	> 100 µM (inactive)	> 100 µM	–
O=C(CSc1ccccc1)Nc1cccc(NC(=O)c2ccco2)c1	–	> 100 µM (inactive)	> 100 µM	–
Cc1cc(C)cc(NC(=O)c2cccc(NC(=O)c3ccco3)c2)c1	–	> 100 µM (inactive)	> 100 µM	–
CCC1=Nc2cc(C(=O)NCc3cccnc3)ccc2Sc2ccc(C)cc21	32.6 µM	> 100 µM (inactive)	–	–
CCCC(=O)Nc1sc2c(c1C(=O)Nc1ccccn1)CCCC2	> 100 µM	–	–	–

SMILES	AC50 [1]	AC50 [2]	AC50 [3, 4]	further results
COc1ccc(NC(=O)c2cccs2)cc1C(=O)N1CCN(c2ccccc2)CC1	> 100 µM	–	–	–
COc1cc(C(N)=O)cc(Br)c1OCc1ccccc1	–	> 100 µM (inactive)	> 100 µM	–
Clc1ccc2nc(CN3CCCc4ccccc43)cn2c1	–	> 100 µM (inactive)	36.1 µM	–
O=c1[nH]c(C2CCN(S(=O)(=O)c3ccc4c(c3)OCCO4)CC2)nc2c1nnn2Cc1ccccc1F	–	> 100 µM (inactive)	> 100 µM	–
O=C(Nc1ccccc1N1CCN(C(=O)c2ccccc2)CC1)c1ccc([N+](=O)[O-])o1	1.97 µM	> 100 µM (inactive)	–	–
CCOc1ccc(OCCn2c(=S)[nH]c3c(N)ncnc32)cc1	17.3 µM	> 100 µM (inactive)	–	–
O=C(Nc1ccncc1)c1ccc(S(=O)(=O)Nc2ccccc2)cc1	46.5 µM	–	–	–
COc1ccccc1-c1nnc(C2CCN(S(=O)(=O)c3ccccc3[N+](=O)[O-])CC2)o1	–	> 100 µM (inactive)	> 100 µM	–
CC(C)n1nnnc1C1c2ccccc2C(=O)N1CCOc1ccccc1 (stereo not given)	5.87 µM	–	–	–
COc1cc(NC(=O)C(c2ccccc2)c2ccccc2)c(C(=O)O)cc1OC	36.4 µM	> 100 µM (inactive)	–	–
CCc1cc2c(=O)n(Cc3ccccc3)c(SC3CCOC3=O)nc2s1 (stereo not given)	46.4 µM	> 100 µM (inactive)	–	–
c1ccc(-n2c(SCc3nc(-c4cccs4)no3)nnc2-c2ccco2)cc1	–	> 100 µM (inactive)	> 100 µM	–
c1ccc(CN2CCN(C3CCCSc4ccccc43)CC2)cc1 (stereo not given)	–	> 100 µM (inactive)	50.3 µM	–
CC(=O)N1CCN(c2cc(N3CCCC3)c(F)cc2[N+](=O)[O-])CC1	–	> 100 µM (inactive)	> 100 µM	–
CC(C)Cn1c(=O)c2ccccc2c2ccccc2c1=O	7.44 µM	> 100 µM (inactive)	–	–
Cc1ccc(C2(c3noc(CN(C)Cc4cccnc4)n3)CCCC2)cc1	–	> 100 µM (inactive)	> 100 µM	–
Cc1sc2ncnc(N3CCCC(C)C3)c2c1C (stereo not given)	–	> 100 µM (inactive)	> 100 µM	–
Cc1nnc2sc(SCC(=O)Nc3ccc(Br)cc3)nn2c1=O	> 100 µM	> 100 µM (inactive)	–	–
Cc1noc(C)c1S(=O)(=O)N(Cc1ccccc1)C(C)C	> 100 µM	–	–	–
CCCCNc1ccc2c(c1)OC[C@@H](Cc1ccccc1)NS2(=O)=O	–	> 100 µM (inactive)	44.4 µM	–
Cc1cc(NC(=O)CN2CCN(c3cccc(Cl)c3)CC2)no1	–	> 100 µM (inactive)	29.5 µM	–
O=C1NC(CCc2ccccc2)C(=O)N1Cc1cccc2ccccc12 (stereo not given)	–	> 100 µM (inactive)	> 100 µM	–
O=C1c2cccc(OCC(=O)N3CCCc4ccccc43)c2CCN1Cc1cccnc1	–	> 100 µM (inactive)	> 100 µM	–
CCOc1ccccc1N(CC(=O)Nc1ccccc1F)S(=O)(=O)c1ccccc1	52.1 µM	> 100 µM (inactive)	–	–
O=C(c1ccc(N2CCCCC2)c([N+](=O)[O-])c1)N1CCN(c2ccccn2)CC1	> 100 µM	–	–	–
Cc1ccsc1C(=O)C1CCCN(Cc2cc(F)ccc2-n2cccn2)C1 (stereo not given)	–	> 100 µM (inactive)	> 100 µM	–
COc1ccc(OC2C(=O)N(Cc3ccc4c(c3)OCO4)C2c2cccs2)cc1 (stereo not given)	–	> 100 µM (inactive)	> 100 µM	–
